The test deals with T1, G6sec1 (Homo sapiens, UniProt Q9BYG0).
T1 construct: made in house; host or cells: Sf21 insect cells infected with pVL1393-F2G6sec1-derived recombinant baculovirus
T1 sequence (Q9BYG0 36-378): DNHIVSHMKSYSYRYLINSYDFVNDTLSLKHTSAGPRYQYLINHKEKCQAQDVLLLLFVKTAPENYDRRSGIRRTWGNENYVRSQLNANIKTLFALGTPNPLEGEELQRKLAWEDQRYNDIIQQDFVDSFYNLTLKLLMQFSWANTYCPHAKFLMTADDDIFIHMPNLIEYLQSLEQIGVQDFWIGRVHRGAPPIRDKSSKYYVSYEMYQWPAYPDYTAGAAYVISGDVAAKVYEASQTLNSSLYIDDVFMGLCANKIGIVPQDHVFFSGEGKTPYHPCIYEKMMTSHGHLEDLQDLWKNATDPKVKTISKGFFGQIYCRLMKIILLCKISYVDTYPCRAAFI
Description: β1,3-N-acetylglucosaminyltransferase activity of purified FLAG peptide-fused G6 polypeptide, 2-aminobenzamide-labeled oligosaccharide substrates. In kind it is biochemical. Conditions: for Relative activity (%) Test 1 G6sec1: 2-aminobenzamide-labeled oligosaccharides, LNnT defined as 100%. The protocol: β1,3-N-Acetylglucosaminyltransferase activity of the FLAG peptide-fused G6 polypeptide secreted and produced in insect cells was measured by using the eluate prepared in Example 8(6). The method of Example 7 was used for the activity measurement.
As substrates, oligosaccharides [LNnT, Galβ1-4GlcNAcβ1-3Galβ1-4GlcNAc (hereinafter referred to as “2LN”), Galβ1-4GlcNAcβ1-3Galβ1-4GlcNAcβ1-3Galβ1-4GlcNAc (hereinafter referred to as “3LN”), Galβ1-4GlcNAcβ1-3Galβ1-4GlcNAcβ1-3Galβ1-4GlcNAcβ1-3Galβ1-4GlcNAc (hereinafter referred to as “4LN”), Galβ1-4GlcNAcβ1-3Galβ1-4GlcNAcβ-3Galβ1-4GlcNAcβ1-3Galβ1-4GlcNAcβ1-3Galβ1-4GlcNAc (hereinafter referred to as “5LN”), or Galβ1-4(SO3-6)GlcNAcβ1-3Galβ1-4(SO3-6)GlcNAc (hereinafter referred to as “L2L2”)] were labeled with 2-aminobenzamide and used. 2-Aminobenzamide-labeling of oligosaccharides was carried out using SIGMA 2AB glycan labeling kit (manufactured by Oxford Glycoscience) according to the manufacture's instructions of the kit. LNnT was purchased from Oxford Glycosystems. Other oligosaccharides were obtained from Seikagaku Corporation.
Specifically, the reaction was carried out at 37° C. for 16 hours in 20 μl of an assay solution [150 mmol/l sodium cacodylate (pH 7.2), 50 mmol/l UDP-GlcNAc (manufactured by SIGMA), 0.4% Triton CF-54, 10 mmol/l MnCl2, 5 μmol/12-aminobenzamide-labeled sugar chain substrate, the above purified enzyme solution], and then the product was detected by high performance liquid chromatography (HPLC, details will be described below). […]
The assay solution after completion of the reaction was treated at 100° C. for 5 minutes and then mixed with 50 μl of pure water for HPLC and centrifuged at 10,000×g for 5 minutes to obtain the supernatant. To a tube containing the assay solution, 50 μl of pure water for HPLC was added again, the tube was washed, and suparnatant was obtained by centrifugation at 10,000×g for 5 minutes and was combined with the first supernatant. Next, the supernatant was passed through Ultrafree-MC column (manufactured by Millipore) and a portion thereof (10 μl) was subjected to HPLC. The Ultrafree-MC column was used according to the method described in the manufacture's instructions attached thereto.
The HPLC was carried out using TSK-gel ODS-80Ts Column (4.6×300 mm; manufactured by TOSOH) as a column and 0.02 mol/l ammonium acetate buffer containing 7% methanol (pH 4.0) as an eluant at an elution temperature of 50° C. and a flow rate of 1 ml/min.
The product was detected using a fluorescence spectrophotometer FP-920 (manufactured by JASCO Corporation) (excitation wavelength: 330 nm, radiation wavelength: 420 nm).

The source of these data is patent US7629150B2, “Transformed cell harboring DNA or RNA encoding sugar chain synthesizing agent having β1,3-N-acetylglucosaminyltransferase activity” (Kyowa Hakko Kirin Co., Ltd., priority 2000, dated 2009).

Regarding `CC(=O)N[C@H]1[C@H](O[C@H]2[C@@H](O)[C@@H](CO)O[C@@H](O[C@H]3[C@H](O)[C@@H](O)C(O)O[C@@H]3CO)[C@@H]2O)O[C@H](CO)[C@@H](O[C@@H]2O[C@H](CO)[C@H](O)[C@H](O)[C@H]2O)[C@@H]1O` (mixture of isomers) [LNnT, lacto-N-neotetraose], the “Relative activity (%) Test 1 G6sec1” value turned out to be 100%. Besides, the “conversion efficiency of the substrate” value (G6sec1-adsorbed ANTI-FLAG M1 AFFINITY GEL used as enzyme) was 6.64%. Further, the “conversion efficiency of the substrate into the product” value (G6sec1 eluate 1.5 μl, 2-aminobenzamide-labeled substrate, 37° C., 16 hours (Test 1)) worked out at 9.85%.
With `CC(=O)N[C@H]1[C@H](O[C@H]2[C@@H](O)[C@@H](CO)O[C@@H](O[C@H]3[C@H](O)[C@@H](NC(C)=O)C(O)O[C@@H]3CO)[C@@H]2O)O[C@H](CO)[C@@H](O[C@@H]2O[C@H](CO)[C@H](O)[C@H](O)[C@H]2O)[C@@H]1O` (stereo partly shown) [2LN, Galβ1-4GlcNAcβ1-3Galβ1-4GlcNAc], the “Relative activity (%) Test 1 G6sec1” value amounted to 81.4%.
